Measured values reported in patent US6737383B1, “Herbicidal oxadiazolidines” (priority 1999, dated 2004).

What was measured:
[1] = system: surinam grass; assay: Test B pre/postemergence surinam grass; type: in vivo, Brachiaria decumbens
In short: (§1)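 Response is a visual 0-to-10 score relative to untreated plants, where 0 means no effect and 10 means complete control, taken twelve to sixteen days after application. Treatments went onto soil at planting and onto foliage of 1- to 4-leaf plants, using a surfactant-containing non-phytotoxic solvent.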

[2] = system: duck salad; assay: Test B flood test duck salad; type: in vivo, Heteranthera limosa; details: Pre-emergence
In short: (§2)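 Plants were grown to the 2-leaf stage before treatment with test chemical, then held in a greenhouse for twelve to sixteen days. Injury was visually rated against untreated controls on a 0–10 scale, where 0 is no effect and 10 is complete control.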

[3] = system: pigweed; assay: Test B pre/postemergence pigweed; type: in vivo, Amaranthus retroflexus
In short: as §1

[4] = system: crabgrass; assay: Test B pre/postemergence crabgrass; type: in vivo, Digitaria sanguinalis
In short: as §1

[5] = system: cocklebur; assay: Test B pre/postemergence cocklebur; type: in vivo, Xanthium strumarium
In short: as §1

[6] = system: blackgrass; assay: Test B pre/postemergence blackgrass; type: in vivo, Alopecurus myosuroides
In short: as §1

[7] = system: rape; assay: Test B pre/postemergence rape; type: in vivo, Brassica napus
In short: as §1

[8] = system: morningglory; assay: Test B pre/postemergence morningglory; type: in vivo, Ipomoea hederacea
In short: as §1

[9] = system: rice; assay: Test B flood test rice; type: in vivo, Oryza sativa; details: Pre-emergence
In short: as §2

[10] = system: giant foxtail; assay: Test B pre/postemergence giant foxtail; type: in vivo, Setaria faberii
In short: as §1

[11] = system: sugar beet; assay: Test B pre/postemergence sugar beet; type: in vivo, Beta vulgaris
In short: as §1

[12] = system: smallflower flatsedge; assay: Test B flood test smallflower flatsedge; type: in vivo, Cyperus difformis; details: Pre-emergence
In short: as §2

[13] = system: purple nutsedge; assay: Test B pre/postemergence purple nutsedge; type: in vivo, Cyperus rotundus
In short: as §1

[14] = system: velvetleaf; assay: Test B pre/postemergence velvetleaf; type: in vivo, Abutilon theophrasti
In short: as §1

[15] = system: corn; assay: Test B pre/postemergence corn; type: in vivo, Zea mays
In short: as §1

[16] = system: wheat; assay: Test B pre/postemergence wheat; type: in vivo, Triticum aestivum
In short: as §1

[17] = Preemergence, Rate 62 g/ha, scale of 0 to 10 where 0 is no effect and 10 is complete control
[18] = Preemergence, Rate 250 g/ha, scale of 0 to 10 where 0 is no effect and 10 is complete control
[19] = Preemergence, Rate 500 g/ha, scale of 0 to 10 where 0 is no effect and 10 is complete control
[20] = Rate 62 g/ha, Postemergence, scale 0 to 10 (0 no effect, 10 complete control)
[21] = Rate 125 g/ha, Postemergence, scale of 0 to 10 where 0 is no effect and 10 is complete control
[22] = Rate 250 g/ha, Postemergence, scale of 0 to 10 where 0 is no effect and 10 is complete control
[23] = Rate 500 g/ha, Postemergence, scale 0 to 10, 0 no effect, 10 complete control
[24] = Rate 1000 g/ha, scale 0 to 10 (0 no effect, 10 complete control)
[25] = Rate 125 g/ha, flood test species, scale 0 to 10 where 0 is no effect and 10 is complete control
[26] = Rate 250 g/ha, flood-test species, scale 0 to 10, 0 is no effect, 10 is complete control
[27] = Rate 500 g/ha, flood test species, scale 0 to 10 (0 no effect, 10 complete control)

`CCN(C(=O)n1oc(=O)n(C(C)C)c1=O)C1CCCCC1` [Compound 309] was tested, and the “B. signalgrass plant response rating” value [1, 17] was 0, the “B. signalgrass plant response rating (0 to 10 scale, 0 is no effect, 10 is complete control)” value ([1]; Preemergence, Rate 125 g/ha) was 0 and the “B. signalgrass plant response rating” value [1, 18] was 0. The “B. signalgrass plant response rating” value [1, 19] was 2, the “B. signalgrass plant response rating” value [1, 20] was 0 and the “B. signalgrass plant response rating” value [1, 21] was 0. For the same compound, the “Plant response rating, B. signalgrass” value [1, 22] was 0, the “B. signalgrass plant response rating” value [1, 23] was 0 and the “Ducksalad plant response rating” value [2, 24] was 0. The “Ducksalad plant response rating” value [2, 25] was 0, the “Ducksalad plant response rating” value [2, 26] was 0 and the “Ducksalad plant response rating” value [2, 27] was 0. The “Redroot pigweed plant response rating” value [3, 17] was 0, the “Redroot pigweed plant response rating (0 to 10 scale)” value ([3]; Preemergence, Rate 125 g/ha) was 0 and the “Redroot pigweed plant response rating” value [3, 18] was 0. The “Redroot pigweed plant response rating” value [3, 19] was 2, the “Redroot pigweed plant response rating” value [3, 20] was 0 and the “Redroot pigweed plant response rating” value [3, 21] was 0. For the same compound, the “Plant response rating, Redroot pigweed” value [3, 22] was 0, the “Crabgrass plant response rating” value [4, 17] was 0 and the “Crabgrass plant response rating (0 to 10 scale)” value ([4]; Preemergence, Rate 125 g/ha) was 1. The “Crabgrass plant response rating” value [4, 18] was 2, the “Crabgrass plant response rating” value [4, 19] was 6 and the “Crabgrass plant response rating” value [4, 20] was 0. The “Crabgrass plant response rating” value [4, 21] was 0, the “Plant response rating, Crabgrass” value [4, 22] was 0 and the “Cocklebur plant response rating” value [5, 17] was 0. For the same compound, the “Cocklebur plant response rating (0 to 10 scale)” value ([5]; Preemergence, Rate 125 g/ha) was 0, the “Cocklebur plant response rating” value [5, 18] was 0 and the “Cocklebur plant response rating” value [5, 19] was 0. The “Cocklebur plant response rating” value [5, 20] was 0, the “Cocklebur plant response rating” value [5, 21] was 0 and the “Plant response rating, Cocklebur” value [5, 22] was 0. The “Cocklebur plant response rating” value [5, 23] was 0, the “Blackgrass plant response rating” value [6, 17] was 0 and the “Blackgrass plant response rating (0 to 10 scale)” value ([6]; Preemergence, Rate 125 g/ha) was 0. For the same compound, the “Blackgrass plant response rating” value [6, 18] was 2, the “Blackgrass plant response rating” value [6, 19] was 6 and the “Blackgrass plant response rating” value [6, 20] was 0. The “Blackgrass plant response rating” value [6, 21] was 0, the “Plant response rating, Blackgrass” value [6, 22] was 0 and the “Blackgrass plant response rating” value [6, 23] was 2. For the same compound, the “Rape plant response rating” value [7, 17] was 0, the “Rape plant response rating (0 to 10 scale)” value ([7]; Preemergence, Rate 125 g/ha) was 0 and the “Rape plant response rating” value [7, 18] was 0. The “Rape plant response rating” value [7, 19] was 0, the “Rape plant response rating” value [7, 20] was 0 and the “Rape plant response rating” value [7, 21] was 0. For the same compound, the “Plant response rating, Rape” value [7, 22] was 0, the “Morningglory plant response rating” value [8, 17] was 0 and the “Morningglory plant response rating (0 to 10 scale)” value ([8]; Preemergence, Rate 125 g/ha) was 0. The “Morningglory plant response rating” value [8, 18] was 0, the “Morningglory plant response rating” value [8, 19] was 0 and the “Morningglory plant response rating” value [8, 20] was 1. The “Morningglory plant response rating” value [8, 21] was 1, the “Plant response rating, Morningglory” value [8, 22] was 2 and the “Rice plant response rating” value [9, 24] was 0. The “Rice plant response rating” value [9, 25] was 0, the “Rice plant response rating” value [9, 26] was 0 and the “Rice plant response rating” value [9, 27] was 0. For the same compound, the “Giant foxtail plant response rating” value [10, 17] was 5, the “Giant foxtail plant response rating (0 to 10 scale)” value ([10]; Preemergence, Rate 125 g/ha) was 9 and the “Giant foxtail plant response rating” value [10, 18] was 9. The “Giant foxtail plant response rating” value [10, 19] was 9, the “Giant foxtail plant response rating” value [10, 20] was 0 and the “Giant foxtail plant response rating” value [10, 21] was 0. The “Plant response rating, Giant foxtail” value [10, 22] was 0, the “Sugarbeets plant response rating” value [11, 17] was 0 and the “Sugarbeets plant response rating (0 to 10 scale)” value ([11]; Preemergence, Rate 125 g/ha) was 0. The “Sugarbeets plant response rating” value [11, 18] was 0, the “Sugarbeets plant response rating” value [11, 19] was 0 and the “Sugarbeets plant response rating” value [11, 20] was 0. The “Sugarbeets plant response rating” value [11, 21] was 0, the “Plant response rating, Sugarbeets” value [11, 22] was 0 and the “S. Flatsedge plant response rating” value [12, 24] was 0. The “S. Flatsedge plant response rating” value [12, 25] was 0, the “S. Flatsedge plant response rating” value [12, 26] was 0 and the “S. Flatsedge plant response rating” value [12, 27] was 0. The “Nutsedge plant response rating” value [13, 17] was 0, the “Nutsedge plant response rating (0 to 10 scale)” value ([13]; Preemergence, Rate 125 g/ha) was 0 and the “Nutsedge plant response rating” value [13, 18] was 0. For the same compound, the “Nutsedge plant response rating” value [13, 19] was 0, the “Nutsedge plant response rating” value [13, 20] was 0 and the “Nutsedge plant response rating” value [13, 21] was 0. For the same compound, the “Plant response rating, Nutsedge” value [13, 22] was 0, the “Velvetleaf plant response rating” value [14, 17] was 0 and the “Velvetleaf plant response rating (0 to 10 scale)” value ([14]; Preemergence, Rate 125 g/ha) was 0. For the same compound, the “Velvetleaf plant response rating” value [14, 18] was 0, the “Velvetleaf plant response rating” value [14, 19] was 2 and the “Velvetleaf plant response rating” value [14, 20] was 0. For the same compound, the “Velvetleaf plant response rating” value [14, 21] was 0, the “Plant response rating, Velvetleaf” value [14, 22] was 0 and the “Corn plant response rating” value [15, 17] was 0. For the same compound, the “Corn plant response rating (0 to 10 scale)” value ([15]; Preemergence, Rate 125 g/ha) was 0, the “Corn plant response rating” value [15, 18] was 2 and the “Corn plant response rating” value [15, 19] was 4. The “Corn plant response rating” value [15, 20] was 0, the “Corn plant response rating” value [15, 21] was 0 and the “Plant response rating, Corn” value [15, 22] was 0. For the same compound, the “Corn plant response rating” value [15, 23] was 0, the “Wheat plant response rating” value [16, 17] was 0 and the “Wheat plant response rating (0 to 10 scale)” value ([16]; Preemergence, Rate 125 g/ha) was 0. The “Wheat plant response rating” value [16, 18] was 0, the “Wheat plant response rating” value [16, 19] was 0 and the “Wheat plant response rating” value [16, 20] was 0. The “Wheat plant response rating” value [16, 21] was 0 and the “Plant response rating, Wheat” value [16, 22] was 0.
